This passage reports EC50, IC50 and outcome results from PubChem BioAssay AID179 (DTP/NCI, 2004).

Structures are written as SMILES. Activity calls are given as the source filed them.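 The calls were made as follows: active = compounds giving half or more protection of infected cells from virus-caused growth loss, again on retest; inactive = the rest.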 A value given as a limit tells only on which side of the number the result lay.

The subject of this test is CEM cells HIV-1 protection, formazan growth assay. In words: NCI AIDS Antiviral Assay. The settings on record: for IC50: measured here: growth of uninfected CEM cells. The method in brief: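 Category rules: moderately active means at least 50% protection on retest, and confirmed active means 100% protection reproducibly. The underlying data came from a formazan growth assay in HIV-1-infected CEM cells.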

Regarding `O=C(O)Cc1ccc(Nc2nc3ccccc3nc2C(=O)O)cc1`, the EC50 was more than 200 µM and the IC50 was more than 200 µM.
Regarding `OC1C2CCC1C1C3C=CC(C3)C21` (centres undefined), the outcome was inactive.
As to `COc1cc(N=Nc2ccccc2C(=O)O)cc(/C=N\NNC(N)=S)c1O`, the EC50 is more than 67.6 µM and the IC50 amounted to 32.4 µM.
As for `C=CC1CN2CCC1CC2C(=O)c1ccnc2ccccc12` (centres undefined), the EC50 is more than 200 µM and the IC50 came to 97.7 µM.
For `NCc1ccc(O)c(O)c1O`, the EC50 is more than 200 µM and the IC50 is 9.33 µM.
On to `[O-]c1on[n+](-c2ccccc2)c1-c1ccccc1`, for which the EC50 was more than 151 µM and the IC50 is 74.1 µM.
Consider `c1ccc([P+](CC2CCCO2)(c2ccccc2)c2ccccc2)cc1` (centres undefined), for which the EC50 is more than 200 µM and the IC50 was found to be 2.82 µM.
Regarding `Cc1ccccc1NC(=O)C1C(=O)N(c2ccccc2C)C(=O)/C1=N\NC(N)=O` (centres undefined), the EC50 was more than 13.2 µM and the IC50 is more than 13.2 µM.
Take `C=C=C[P+](c1ccccc1)(c1ccccc1)c1ccccc1`: the EC50 is more than 155 µM and the IC50 was 3.24 µM.
On the same counts, the results for `c1ccc(CN2COc3c(ccc4ccccc34)C2)cc1` are more than 200 µM and 55 µM.
Take `O=C(O)CC[n+]1ccccc1`: the EC50 was more than 200 µM and the IC50 is more than 200 µM.
Take `Nc1nc(Cl)cc(NCC2(CO)CCCCC2)n1`: the EC50 is more than 200 µM and the IC50 was 105 µM.
On the same counts, the results for `COC(=O)CN(CC1O[C@@H]2OC(C)(C)O[C@@H]2C1N=[N+]=[N-])C(=O)OCc1ccccc1` (some centres undefined) are more than 200 µM and 20.9 µM.
On the same counts, the results for `Nc1ccc(S(=O)(=O)Nc2nc3ccccc3nc2N2CCCCCC2)cc1` are more than 200 µM and 33.1 µM.
In the same order, the values of `Cc1ccc2c(c1)SC(c1cc3c(cc1Br)OCO3)S2` (centres undefined) are more than 50.1 µM and more than 50.1 µM.
Turning to `S=C(NCc1ccccc1-c1ccccc1)Nc1ccc(Br)cn1`, the EC50 is more than 2 µM and the IC50 came to 0.38 µM.
On the same counts, the results for `O=c1[nH]c(=O)n(C2OC(CF)C(O)C2O)cc1Br` (centres undefined) are more than 200 µM and more than 200 µM.
Regarding `CC1(C)CC(=O)C2=C(C1)OC1=C(C(=O)CC(C)(C)C1)C2CC(c1ccccc1)c1ccc(O)c(O)c1O` (centres undefined), the EC50 is more than 200 µM and the IC50 turned out to be 8.51 µM.
On the same counts, the results for `CCOc1ccccc1NC(=O)C(=O)CC(=O)C1=C(C)Nc2ccccc2S1` are more than 117 µM and more than 117 µM.
For `O=C(CC(=O)c1cccc2ccccc12)C(=O)NC1C2CC3CC(C2)CC1C3` (centres undefined), the outcome was inactive.
Regarding `CC(C)C(=O)/C=C/c1ccc(Cl)c(Cl)c1`, the EC50 was more than 200 µM and the IC50 stood at 11 µM.
With `CCOP(=O)(OCC)c1cc(NC(=O)c2cc(NC(=O)c3cc(NC(=O)Nc4cc(C(=O)Nc5cc(C(=O)Nc6cc(P(=O)(OCC)OCC)c7cccc(P(=O)(OCC)OCC)c7c6)n(C)c5)n(C)c4)cn3C)cn2C)cc2c(P(=O)(OCC)OCC)cccc12`, the EC50 was more than 200 µM and the IC50 is more than 200 µM.
With `C1=Nc2ccccc2N=Cc2ccccc2NCCNc2ccccc21`, the EC50 was more than 200 µM and the IC50 was more than 200 µM.
`c1ccc(CN2CCC3(CC2)SSC2(CCN(Cc4ccccc4)CC2)SS3)cc1`: the EC50 is more than 100 µM and the IC50 came to 64.6 µM.
On the same counts, the results for `CN=c1nc2sc3c(c2c(NC(=S)NC)s1)CCCC3` are 77.6 µM and more than 200 µM.
In the same order, the values of `O=C(CCc1ccc(O)cc1)NCCc1ccc(O)cc1` are 38.9 µM and 166 µM.
Regarding `CCN(CC)c1c(C(=O)/C=C/c2ccc(F)cc2)c(-c2ccccc2)nn(C)c1=O`, the EC50 is more than 33.9 µM and the IC50 came to 7.24 µM.
As to `C=CC[C@H]1O[Si](C(C)(C)C)(C(C)(C)C)[C@H](C)[C@H]1C`, the EC50 is more than 200 µM and the IC50 was more than 200 µM.
For `CC(C)(C)C(=O)OCC1CCC[N+]2(C)CCCCC12` (centres undefined), the EC50 is more than 200 µM and the IC50 is more than 200 µM.
In the case of `CN1CCN(c2n[nH]c(=O)c3c2nnn3Cc2ccccc2)CC1`, the EC50 is more than 200 µM and the IC50 is more than 200 µM.
For the compound `COC(=O)/C=C1\C(CO[Si](C)(C)C(C)(C)C)OC(n2cc(C)c(=O)n(C)c2=O)C1O[Si](C)(C)C(C)(C)C` (centres undefined), the EC50 is more than 200 µM and the IC50 is 20.9 µM.
Turning to `CCCCCn1c(=O)c2c(=O)[nH][nH]c2c2ccccc21`, the EC50 was more than 200 µM and the IC50 is more than 200 µM.
As for `O=C(c1ccccc1)C(c1ccccc1)C1(O)C(=O)Nc2c(Cl)cc(Cl)cc21` (centres undefined), the EC50 was more than 63.1 µM and the IC50 is more than 63.1 µM.
`CSc1c(C(C)=O)c(O)n(-c2ccc(Cl)cc2)c(=O)c1C#N`: the EC50 was 35.5 µM and the IC50 worked out at 36.3 µM.
Consider `CCCC(=O)Oc1ccc2c(C)cc(=O)oc2c1`, for which the EC50 is more than 200 µM and the IC50 was more than 200 µM.
As to `O=C(/C=C/c1ccc(O)c(O)c1)OCC(OC(=O)/C=C/c1ccc(O)c(O)c1)C(=O)O` (centres undefined), the EC50 is more than 200 µM and the IC50 was 28.2 µM.
In the case of `CC(=O)n1c(=O)c2cc3c(=O)n(-c4cccc(C#N)c4)c(=O)c3cc2c1=O`, the result was inactive.
`O=c1cn[nH]c2ccc(F)cc12`: the EC50 is more than 219 µM and the IC50 was more than 219 µM.
For `O=[N+]([O-])c1ccc(C2=NOC(c3ccc(Cl)cc3)N2C23CC4CC(CC(C4)C2)C3)cc1` (centres undefined), the EC50 was more than 200 µM and the IC50 is 182 µM.
As to `c1ccc(Oc2ncnc3ccccc23)cc1`, the EC50 is more than 200 µM and the IC50 came out at 63.1 µM.
Turning to `COC(=O)c1ccccc1SSCCN`, the EC50 was more than 200 µM and the IC50 is 19.1 µM.
Regarding `CC#CCOC(=O)c1ccccc1OC(C)=O`, the EC50 was more than 200 µM and the IC50 is more than 200 µM.
Turning to `CN1CSC(=S)N(C)C1`, the EC50 was more than 200 µM and the IC50 was 13.2 µM.
On to `COc1ccc(OC)c(/C=C/NC=O)c1`, for which the EC50 was more than 200 µM and the IC50 was more than 200 µM.
With `CN(C)CCC(=O)CCN(C)C`, the EC50 was more than 1020 µM and the IC50 worked out at 186 µM.
In the case of `COC(=O)N1CCC(Sc2ccccc2)C2(CCOC(=O)c3ccccc3)CCC(O)C12` (centres undefined), the EC50 was more than 40.7 µM and the IC50 was more than 40.7 µM.
`CCOC(=O)C(C)(C)Oc1ccc2c(-c3ccc(Cl)cc3)c(-c3ccc(Cl)cc3)c(=O)oc2c1`: the EC50 was more than 7.59 µM and the IC50 was more than 7.59 µM.
On to `COc1cccc(C=C2C(=O)NC(=O)NC2=O)c1`, for which the EC50 was more than 145 µM and the IC50 was more than 145 µM.
On to `COC(=O)c1c2c(n(CCO)c1OC)C(=O)c1ccccc1C2=O`, for which the EC50 is more than 200 µM and the IC50 was 81.3 µM.
On the same counts, the results for `Cc1ccc2c(c1)C/C(=C\c1ccccc1C(=O)O)C2=O` are more than 200 µM and 102 µM.
On the same counts, the results for `CCc1cc2c(=O)[nH]c(-c3cccnc3)nc2s1` are more than 200 µM and more than 200 µM.
On to `C[Si](C)(C)C1(Sc2ccccc2)SCCCS1`, for which the outcome was inactive.
For the compound `CC1CCc2c(sc3ncnc(N/N=C/c4ccc(Cl)c(Cl)c4)c23)C1` (centres undefined), the EC50 is more than 25.7 µM and the IC50 is more than 25.7 µM.
Regarding `COC(=O)C(Nc1ccc(OC)cc1)c1ccccc1` (centres undefined), the EC50 is more than 200 µM and the IC50 amounted to 148 µM.
In the same order, the values of `CC1(C)CC(=O)C2C(C1)Nc1ccccc1NC2c1ccccc1[N+](=O)[O-]` (centres undefined) are more than 61.7 µM and more than 61.7 µM.
In the same order, the values of `CCOC(=O)N1[C@@H]2CCC[C@@H]2C(=O)[C@@H]2CCC[C@@H]21` are more than 200 µM and more than 200 µM.
Regarding `CCOC(=O)c1cnc(-n2[nH]c(C)c(CCO)c2=O)[nH]c1=O`, the EC50 was more than 200 µM and the IC50 is more than 200 µM.
For `COc1ccc(CCNC(=O)Cc2cc(OC)c(OC)cc2Br)cc1OC`, the EC50 was more than 81.3 µM and the IC50 is more than 81.3 µM.
In the case of `O=S1(=O)O[C@H]2CCCC[C@H]2O1`, the EC50 is more than 40.7 µM and the IC50 was more than 40.7 µM.
`COc1cc2c(c3oc(=O)c4c(c13)CCC4=O)[C@@H]1C=CO[C@@H]1O2`: the EC50 was more than 100 µM and the IC50 came out at 69.2 µM.
`Cc1c2ccccc2nc(CS(C)(=O)=O)[n+]1[O-]`: the EC50 was more than 200 µM and the IC50 was more than 200 µM.
In the case of `O=c1cc2c(n[nH]1)CCCC2`, the EC50 was more than 708 µM and the IC50 was more than 708 µM.
Consider `COc1cc2c(cc1OC)[C@@H]([C@H](O)c1ccccc1)NCC2`, for which the result was inactive.
For `CCOC(=O)/C(=C\c1ccoc1)P(=O)(OCC)OCC`, the EC50 is more than 832 µM and the IC50 stood at 30.9 µM.
In the same order, the values of `CCOP(=O)(OCC)OC1CC(n2cc(C)c(=O)n(C)c2=O)OC1CO[Si](C)(C)C(C)(C)C` (centres undefined) are more than 200 µM and 107 µM.
Take `C=C(CCC(Cl)C(COC)OC(CCC)OCC)[Si](C)(C)C` (centres undefined): the EC50 is more than 38.9 µM and the IC50 is more than 38.9 µM.
Regarding `CC(CC(=O)N1C(=O)C(C)(C)[C@@H](O)[C@H]1CC(C)C(Cl)(Cl)Cl)C(Cl)(Cl)Cl` (some centres undefined), the outcome was inactive.
With `Cc1cn(C2CC(O)C(CO)O2)c(=O)n2nnnc12` (centres undefined), the result was inactive.
With `N#Cc1cc2ccccc2n(Cc2ccccc2)c1=O`, the EC50 was more than 200 µM and the IC50 is more than 200 µM.
In the case of `CN(C)c1ccc(C=NC23CC4CC(CC(C4)C2)C3)cc1`, the EC50 is more than 63.1 µM and the IC50 was more than 63.1 µM.
For `COc1cc2noc(-c3ccccc3)c2cc1OC`, the result was inactive.
For the compound `C=CCn1c(=O)c(C(=O)NC(=O)OCC)cn(C2CCCCC2)c1=O`, the EC50 was more than 145 µM and the IC50 was more than 145 µM.
In the case of `C/C(Cc1[nH]nc2c1c(=O)oc1ccc3ccccc3c12)=N\N`, the EC50 is more than 200 µM and the IC50 worked out at 12.6 µM.
In the same order, the values of `O=c1ccc2ccccc2o1` are more than 1700 µM and 1410 µM.
In the same order, the values of `C1CSCCSCCSCCSCCSCCS1` are more than 14.5 µM and more than 14.5 µM.
On to `NC(=S)NNc1c([N+](=O)[O-])cnn(-c2ccccc2)c1=O`, for which the EC50 is more than 58.9 µM and the IC50 stood at 0.324 µM.

In general, EC50 refers to the midpoint of the concentration-response curve. One may read the IC50 as the point on the concentration scale where inhibition reaches its midpoint.
